We go through 18 compounds from US5891917A, “Certain acrylonitrile-sulfonamide derivatives” (Sugen, Inc., priority 1997, dated 1999).

Test [1] deals with T1, PDGFR-beta (Homo sapiens, UniProt P09619).
T1 construct: the human glioblastoma line U1242 that expresses PDGFR-beta; endogenous in cells; host or cells: U1242 MG human glioblastoma cells
The test can be described thus: PDGF-R Cellular Assay (ELISA). In kind it is cell-based. As to conditions: U1242 MG cells, 100 ng/ml PDGF-BB. The source says: (§1) The following examples illustrate the ability of the exemplary compounds to inhibit receptor tyrosine kinases, such as HER2 and/or EGFR. The following target cells were used for cellular kinase assays: NIH3T3 clone C7 (Honegger et al., supra) engineered to over-express human EGF receptor; NIH3T3 cells engineered to over-express a chimeric receptor containing the EGFR extracellular domain and the HER2 intracellular kinase domain; the human mammary carcinoma line BT474 (ATCC HTB2) expressing HER2; and the human glioblastoma line U1242 that expresses PDGFR-beta. Growth assays were carried out using human mammary epithelial SKBR3 (ATCC HTB30) cells (SKBR3 cells over-express HER2), SKOV3 (ATCC HTB77) human ovarian cancer cell line (SKOV3 cells also over-express HER2), A431 cells (A431 cells over-express EGFR) MCF7 human breast carcinoma cells, MCF7 cells overexpressing the HER2 kinase (MCF7-HER2), NIH3T3 cells, and NIH3T3 cells overexpressing the HER2 kinase (3T3-HER2.
The PDGF cellular kinase assay was carried out as follows: cells are lysed in 0.2M Hepes, 0.15M NaCl, 10% V/V glycerol, 0.04% Triton X-100, 5 mM EDTA, 5 rnM Na+ vanadate and 2 mM Na+ pyrophosphate; cell lysates are then added to an ELISA plate coated with an anti-PDGF receptor antibody (Genzyme); ELISA plates are coated at 0.5 μg of antibody/well in 150 μl of PBS for 18 hours at 4° C. prior to the addition of the lysate; the lysate is incubated in the coated plates for 1 hour and then washed four times in TBST (35 mM Tris-HCl pH 7.0, 0.15M NaCl, 0.1% Triton X100); anti-phosphotyrosine antibody (100 μl in PBS) is added and the mixture is incubated for 30 minutes at room temperature; the wells were then washed four times in TBST, a secondary antibody conjugated to POD (TAGO) is added to each well, and the treated well are incubated for 30 minutes at room temperature; the wells are then washed four times in TBST, ABTS/H2 O2 solution is added to each well and the wells are incubated for two minutes; absorbance is then measured at 410 nm.
U1242 MG cells were plated in 96-well plates at a concentration of 5×10^4 cells/well in cultured media containing 0.5% FBS. The cells were incubated for 24 hours. The cells were then treated with a particular compound for 2 hours followed by the addition of 100 ng/ml PDGF-BB and incubation for 10 minutes.
Cells were lysed in 0.2M Hepes, 0.15M NaCl, 10% V/V glycerol, 0.04% Triton X-100, 5 mM EDTA, 5 mM Na+ vanadate and 2 mM Na+ pyrophosphate. Cell lysates were then added to an ELISA plate coated with an anti-PDGF receptor antibody (Genzyme). ELISA plates were coated at 0.5 μg of antibody/well in 150 μl of PBS for 18 hours at 4° C. prior to the addition of the lysate.
The lysate was incubated in the coated plates for 1 hour and then washed four times in TBST (35 mM Tris-HCl pH 7.0, 0.15M NaCl, 0.1 % Triton X-100). Anti-phosphotyrosine antibody (100 μl in PBS) was added and the mixture was incubated for 30 minutes at room temperature. The wells were then washed four times in TBST, a secondary antibody conjugated to POD (TAGO) was added to each well, and the treated well were incubated for 30 minutes at room temperature. The wells were then washed four times in TBST, ABTS/H2 O2 solution was added to each well and the wells were incubated for two minutes. Absorbance was then measured at 410 nm.
(In general: ELISA stands for enzyme-linked immunosorbent assay.)

Test [2] concerns the target T2, HER2 (Homo sapiens, UniProt P04626).
T2 construct: a human breast tumor cell line which expresses high levels of HER2 kinase; endogenous in cells; host or cells: BT-474 human breast tumor cells
The test can be described thus: HER2-BT474 whole cell ELISA. In kind it is cell-based. To be noted: BT-474 cells.
Source text: as §1
HER2-BT474 assays measuring whole cell HER2 activity was carried out as described below:
1. The cell line used in this assay is BT-474 (ATCC HBT20), a human breast tumor cell line which expresses high levels of HER2 kinase.
2. BT-474 is grown in an incubator with 5% CO2 at 37° C. The growth media is RPMI+10% FBS+GMS-G (Gibco supplement)+Glutamine.
(a) Grow BT474 cells in tissue culture dishes (10 cm, Corning 25020-100) to 80-90% confluence and collect using Trypsin-EDTA (0.25%, GIBCO).
(b) Resuspend the cells in fresh medium and transfer to 96-well tissue culture plates (Corning, 25806-96) at about 25,000-50,000 cells/well (100 μl/well). Incubate the cells in 5% CO2 at 37° C. overnight.
(a) Coat the ELISA plate (Corning 25805-96) with anti HER2 antibody at 0.5 μg/well in 150 μl PBS overnight at 4° C., and seal with parafilm. The antibody coated plates can be used up to 2 weeks, when stored at 4° C.
(b) On the day of use, remove the coating solution, replace with 200 μl of Blocking Buffer, shake the plate, and then remove the blocking buffer and wash the plate just before adding lysate.
(a) […] the drugs in serum-free condition. Before adding drugs, the old media is replaced with serum-free RPMI (90 μl/well)
(b) Dilute drug stock (in 100% DMSO) 1:10 with RPMI, and transfer 10 μl/well of this solution to the cells to achieve a final drug DMSO concentration at 1%. Incubate the cells in 5% CO2 at 37° C.
(c) Prepare fresh cell lysis buffer (HNTG*)
(d) After drug preincubation for two hours remove all the solution from the plate, transfer HNTG* 100 μl/well to the cells, and shake for 10 minutes.
(e) Use a 12-channel pipette to scrape the cells from the plate, and homogenize the lysate by repeat aspiration and dispensing. Transfer all the lysate to the ELISA plate and shake for 1 hour.
(f) Remove the lysate, wash the plate, add anti-pTyr (1:3,000 with TBST) 100 μl/well, and shake for 30 minutes.
(g) Remove anti-pTyr, wash the plate, add goat anti-rabbit IgG conjugated antibody (1:5,000 with TBST) 100 μl/well, and shake for 30 minutes.
(h) Remove anti-rabbit IgG antibody, wash the plate, and add fresh ABTS/H2 O2 (1.2 μl 30% H2 O2 to 10 ml ABTS) 100 μ/well to the plate to start color development, which usually takes 20 minutes.
(I) Measure OD 410 nm, Dynatec MR5000.

T1 sequence (P09619 33-1106): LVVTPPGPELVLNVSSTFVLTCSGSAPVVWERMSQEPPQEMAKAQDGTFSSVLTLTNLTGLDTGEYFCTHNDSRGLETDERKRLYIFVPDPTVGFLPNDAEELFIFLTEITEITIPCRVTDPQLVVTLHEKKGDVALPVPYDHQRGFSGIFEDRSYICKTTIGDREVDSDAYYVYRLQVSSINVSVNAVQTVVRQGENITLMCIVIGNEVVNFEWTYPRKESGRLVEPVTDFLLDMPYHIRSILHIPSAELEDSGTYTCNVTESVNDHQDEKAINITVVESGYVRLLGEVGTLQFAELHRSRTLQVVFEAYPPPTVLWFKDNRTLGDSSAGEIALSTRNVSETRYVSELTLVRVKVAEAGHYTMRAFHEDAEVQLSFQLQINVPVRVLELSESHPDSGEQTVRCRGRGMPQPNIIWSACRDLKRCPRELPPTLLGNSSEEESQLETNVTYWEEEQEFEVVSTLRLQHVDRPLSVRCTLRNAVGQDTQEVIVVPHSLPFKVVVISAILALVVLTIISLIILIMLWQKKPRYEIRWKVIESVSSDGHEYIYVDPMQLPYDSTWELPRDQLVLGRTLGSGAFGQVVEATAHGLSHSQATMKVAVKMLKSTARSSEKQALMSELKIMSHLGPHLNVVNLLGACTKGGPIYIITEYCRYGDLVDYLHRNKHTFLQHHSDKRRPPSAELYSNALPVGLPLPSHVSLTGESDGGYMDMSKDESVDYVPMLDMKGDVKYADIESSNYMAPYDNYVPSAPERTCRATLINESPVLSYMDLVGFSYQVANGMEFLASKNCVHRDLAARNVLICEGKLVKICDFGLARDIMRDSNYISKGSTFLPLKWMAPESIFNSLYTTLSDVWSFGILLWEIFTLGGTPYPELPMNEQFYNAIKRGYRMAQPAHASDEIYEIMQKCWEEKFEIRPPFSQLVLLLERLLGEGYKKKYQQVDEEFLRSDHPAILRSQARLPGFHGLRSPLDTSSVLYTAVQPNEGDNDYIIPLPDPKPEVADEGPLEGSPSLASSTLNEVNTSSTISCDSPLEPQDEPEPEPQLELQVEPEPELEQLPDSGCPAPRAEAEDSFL
T2 sequence (P04626 23-1255): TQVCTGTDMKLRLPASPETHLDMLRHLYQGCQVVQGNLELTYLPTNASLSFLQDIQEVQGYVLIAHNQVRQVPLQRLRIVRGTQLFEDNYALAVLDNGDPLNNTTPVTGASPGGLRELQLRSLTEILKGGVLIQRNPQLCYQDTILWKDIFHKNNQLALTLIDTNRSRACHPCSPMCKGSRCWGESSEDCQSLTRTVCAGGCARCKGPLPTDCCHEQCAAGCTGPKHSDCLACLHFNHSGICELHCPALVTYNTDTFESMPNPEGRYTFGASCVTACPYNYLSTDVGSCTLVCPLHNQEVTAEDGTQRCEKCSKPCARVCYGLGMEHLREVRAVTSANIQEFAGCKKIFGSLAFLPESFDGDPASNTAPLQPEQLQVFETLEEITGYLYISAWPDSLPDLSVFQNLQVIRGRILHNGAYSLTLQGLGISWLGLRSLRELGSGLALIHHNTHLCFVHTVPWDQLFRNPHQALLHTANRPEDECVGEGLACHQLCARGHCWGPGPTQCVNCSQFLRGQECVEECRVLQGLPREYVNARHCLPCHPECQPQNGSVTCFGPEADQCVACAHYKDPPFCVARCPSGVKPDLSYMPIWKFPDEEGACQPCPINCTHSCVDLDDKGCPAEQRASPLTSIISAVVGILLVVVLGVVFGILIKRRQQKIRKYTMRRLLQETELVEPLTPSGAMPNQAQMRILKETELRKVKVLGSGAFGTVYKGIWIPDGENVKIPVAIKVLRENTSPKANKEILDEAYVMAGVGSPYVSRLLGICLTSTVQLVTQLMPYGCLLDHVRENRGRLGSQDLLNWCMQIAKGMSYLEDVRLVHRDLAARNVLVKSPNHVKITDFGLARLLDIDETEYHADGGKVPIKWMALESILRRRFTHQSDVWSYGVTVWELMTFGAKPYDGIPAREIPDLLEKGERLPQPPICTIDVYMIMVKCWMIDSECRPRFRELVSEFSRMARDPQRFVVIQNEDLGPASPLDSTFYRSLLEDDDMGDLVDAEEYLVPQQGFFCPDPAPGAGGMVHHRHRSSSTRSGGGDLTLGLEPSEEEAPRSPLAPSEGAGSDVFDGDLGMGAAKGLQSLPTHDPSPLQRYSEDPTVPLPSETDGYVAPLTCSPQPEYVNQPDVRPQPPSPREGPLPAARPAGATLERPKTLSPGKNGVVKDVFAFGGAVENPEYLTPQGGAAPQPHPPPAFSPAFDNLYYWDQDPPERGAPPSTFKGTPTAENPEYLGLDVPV

What is called IC50 is the point on the concentration scale where inhibition reaches its midpoint. In the case of `CC(C)c1cc(/C=C(\C#N)S(=O)(=O)NCc2ccccc2)cc(C(C)C)c1O` [Compound 732], the figures for the half-inhibitory concentration (IC50) in test [1] and in test [2] were 50 µM and 1.9 µM, respectively. As to `N#C/C(=C\c1ccc(O)c(O)c1)S(=O)(=O)c1cccs1` [Compound 743, (E)-3-(3,4-Dihydroxyphenyl)-2-[(thien-2-yl)sulfonyl]acrylonitrile], the half-maximal inhibitory concentration (IC50) is over 100 µM in test [1] and 12.6 µM in test [2].

In the case of `CC(C)(C)c1cc(/C=C(\C#N)S(=O)(=O)c2ccc(F)cc2)cc(C(C)(C)C)c1O` [Compound 740], the IC50 in test [1] was over 100 µM; in test [2], 0.4 µM. With `CC(C)c1cc(/C=C(\C#N)S(=O)(=O)c2ccc(F)cc2)cc(C(C)C)c1O` [Compound 741, (E)-3-(3,5-Diisopropyl-4-hydroxyphenyl)-2-(4-fluorophenylsulfonyl)acrylonitrile], the IC50 in test [1] is over 100 µM. For `N#C/C(=C\c1ccc(O)cc1Cl)S(=O)(=O)NCc1ccccc1` [Compound 733], the values for the IC50 in test [1] and in test [2] were over 50 µM and 5.8 µM, respectively. Take `CC(C)(C)c1cc(/C=C(\C#N)S(=O)(=O)c2cccs2)cc(C(C)(C)C)c1O` [Compound 742]: the values for the IC50 in test [1] and in test [2] were over 100 µM and 0.2 µM, respectively. For `Cc1cc(/C=C(\C#N)S(=O)(=O)Cc2cccc(C(F)(F)F)c2)cc(C)c1O` [Compound 739], the IC50 in test [1] is over 100 µM; in test [2] it was 4.1 µM. The compound `Cc1cc(/C=C(\C#N)S(=O)(=O)c2ccccc2)cc(C)c1O` [Compound 748] came in with an IC50 in test [1] of over 100 µM. Take `Cc1cc(/C=C(\C#N)S(=O)(=O)c2ccc(F)cc2)cc(C)c1O` [Compound 744]: the results for the IC50 in test [1] and in test [2] were over 100 µM and 4.5 µM, respectively.

Compound `CC(C)c1cc(/C=C(\C#N)S(=O)(=O)/C(C#N)=C/c2cc(C(C)C)c(O)c(C(C)C)c2)cc(C(C)C)c1O` [Compound 745] showed a half-inhibitory concentration (IC50) in test [2] of over 50 µM. For the compound `N#C/C(=C\c1ccc(O)cc1Cl)S(=O)(=O)NCCCc1ccccc1` [Compound 734], the IC50 in test [1] is over 50 µM; in test [2], 1.8 µM. For `CC(C)c1cc(/C=C(\C#N)S(=O)(=O)c2ccccc2)cc(C(C)C)c1O` [Compound 731], the 50% inhibitory concentration (IC50) in test [1] was over 50 µM; in test [2], 0.3 µM. Taken in the same sequence, the figures for `CC(C)(C)c1cc(/C=C(\C#N)S(=O)(=O)c2ccsc2)cc(C(C)(C)C)c1O` [Compound 746] were over 100 µM and 0.3 µM. Taken in the same sequence, the figures for `CC(C)c1cc(/C=C(\C#N)S(=O)(=O)c2ccsc2)cc(C(C)C)c1O` [Compound 738] were over 100 µM and 1.3 µM. For the compound `CC(C)c1cc(/C=C(\C#N)S(=O)(=O)Cc2cccc(C(F)(F)F)c2)cc(C(C)C)c1O` [Compound 736], the figures for the 50% inhibitory concentration (IC50) in test [1] and in test [2] were over 100 µM and 0.8 µM, respectively. For `CC(C)c1cc(/C=C(\C#N)S(=O)(=O)c2cccs2)cc(C(C)C)c1O` [Compound 737], in that order: over 100 µM and 1 µM.

In test [1], `CC(C)c1cc(/C=C(\C#N)S(=O)(=O)c2ccccn2)cc(C(C)C)c1O` [Compound 747] yielded an IC50 of over 50 µM.

For the compound `CC(C)(C)c1cc(/C=C(\C#N)S(=O)(=O)Cc2cccc(C(F)(F)F)c2)cc(C(C)(C)C)c1O` [Compound 735], the figures for the IC50 in test [1] and in test [2] were over 100 µM and 0.3 µM, respectively.
